The nature of data set [1]: blood plasma half life after oral administration. It is filed as in vivo. The settings on record: oral administration of immediate release composition. The source says: The pharmaceutical compositions useful in the practice of the invention are for oral administration and are “immediate release” dosage forms. That is, the pharmaceutical compositions useful in the practice of the invention have neither the pharmacokinetic nor physical characteristics of extended release pharmaceutical dosage forms. Thus, a pharmaceutical composition useful in the practice of the invention, if in solid form, will disintegrate or dissolve rapidly, preferably within one hour of administration, and administration of a pharmaceutical composition useful in the practice of the invention will result in a rapid rise in the blood plasma concentration of 5-methyl-2-(2′-chloro-6′-fluoroanilino)phenylacetic acid. Preferably, the blood plasma concentration of 5-methyl-2-(2′-chloro-6′-fluoroanilino)phenylacetic acid will reach a maximum within two to six hours after oral administration and will then fall rapidly due to the relatively short (3 to 6 hour) half life of 5-methyl-2-(2′-chloro-6′-fluoroanilino)phenylacetic acid.

A short description of data set [2]: chemical stability of drug substance in tablets as a function of residual moisture (LOD). Type of data set: physicochemical. The settings on record: LOD kept at about 2.1%-4.5% (200 mg tablets) or about 1.7%-3.5% (400 mg, 65% drug-loaded tablets). The protocol:
That is, certain degradation products of 5-methyl-2-(2′-chloro-6′-fluoroanilino)phenylacetic acid are formed at a greater rate in dryer tablets, which is contrary to the typical behavior of drug substances. In general, moisture, in the form of water, is detrimental to drug stability, and packaging for pharmaceutical formulations frequently contains some form of desiccant material to minimize moisture levels.
Tablets with about 200 mg of active agent preferably have an LOD of 3.5% with a desirable range between about 2.1% and about 4.5%. 65% drug-loaded tablets with about 400 mg of active agent preferably have an LOD of about 2.5%, with a desirable range between about 1.7% and about 3.5%.
The compositions and methods of the invention provide solid pharmaceutical compositions for oral administration comprising 5-methyl-2-(2′-chloro-6′-fluoroanilino)phenylacetic acid with minimal levels of total degradation products Oral dosage levels for 5-methyl-2-(2′-chloro-6′-fluoroanilino)phenylacetic acid are of the order of between about 200 and about 1200 mg per patient per day. In a preferred embodiment, the effective amount is between about 200 and about 800 mg. In a more preferred embodiment, the effective amount is between about 200 and about 600 mg. In an even more preferred embodiment, the effective amount is between about 200 and about 400 mg. […]

The term half-life denotes the time needed for the level to fall by half in the phase considered. A high value points to slow decline. `Cc1ccc(Nc2c(F)cccc2Cl)c(CC(=O)O)c1` [5-methyl-2-(2′-chloro-6′-fluoroanilino)phenylacetic acid] displayed a half-life in data set [1] of 3 to 6 h. In data set [2], the “chemical stability of the active agent in tablets” value was “more chemically stable”.

The values are drawn from patent publication US20050123604A1, “Pharmaceutical compositions” (priority 2002, published 2005).
